In patent US8207310B2, “Antibodies to proteolysis inducing factor (PIF) receptor and methods of use thereof” (Ashton University, priority 2006, dated 2012):
Entries after “also recorded” stand apart in the source; their conditions may differ.

Tested on: PIF receptors on C2C12 membranes
Assay: Competitive binding of [35S]PIF to C2C12 membranes
Design: species or system mouse
Conditions: result in words
Procedure: Competitive binding of [^35S]PIF C2C12 membranes (200 μg) in PBS (250 μl) were incubated with 1, 5, 10, 50, 100, 500 or 1000 ng of either monoclonal antibody, chondroitin, dermatan or heparan sulfate and 20 nM (480 ng) of [^35S]PIF overnight at 4° C. The bound radioactivity was determined from the radioactivity in the pellet obtained by centrifugation at 13,000 g for 5 min.
The Kaff was determined according to a modification (Clark, B. R. and Todd, C. W. Avidin as a precipitant for biotin-labelled antibody in a radioimmunoassay for carcinoembryonic antigen. Anal. Biochem., 121: 257-262, 1982.) of the method of Muller (Muller, R.
Calculation of average antibody affinity in anti-hapten sera from data obtained by competitive radioimmunoassay. J. Immunol. Methods, 34: 345-352, 1980.). Kaff=^1/(It−Tt)(1−[…]+0.5b^2) where It is the inhibitor concentration at 50% inhibition of PIF binding; Tt the total PIF concentration; b the fraction of PIF bound in the absence of inhibitor.

Row | Substance | inhibition of binding of PIF to receptors on C2C12 membranes
1 | chondroitin sulfate | competitive inhibition; also recorded: specifically inhibited
2 | heparan sulfate | not
